Assays:
Format in all cases: in vivo
Aphis gossypii [1] = test: Test Example 2: foot drench of cucumber seedling on urethane mat, Aphis gossypii; conditions: soil, 168 h, 5 ml drench at foot of cucumber seedling on urethane mat, inoculated one day after treatment, checked seven days after
Experimental: The formulations of the present active compounds (4), (5), (8), (9), (11), (12), (14), (15), (17), (20), (35) to (45), (48) to (51), (54) to (56), (206), (209) and (211) to (213) obtained by Formulation Example 5 were diluted with water so that the active ingredient concentration was 500 ppm, to prepare diluted solutions for test. Separately, a cucumber seedling (second true leaf spreading stage) planted on a urethane mat was drenched at its foot with each 5 ml of the diluted solutions, and one day after treatment, the cucumber leaf surface was inoculated with 30 Aphis gossypii (whole stage). Further seven days after, the number of insect of living Aphis gossypii […] on the leaves of this cucumber was checked, and the control value was calculated according to the following formula. Control value (%)={1-(Cb×Tai)/(Cai×Tb)}×100 Letters in the formula represent the following meanings. Cb: the number of insect before treatment on non-treated district Cai: the number of insect in observation on non-treated district Tb: the number of insect before treatment on treated district Tai: the number of insect in observation on treated district

Nilaparvata lugens [2] = test: Test Example 8: spray on rice seedling, 20 first instar larvae of Nilaparvata lugens; conditions: 144 h, 10 ml sprayed on rice seedling, 20 first instar larvae released, 6 days at 25° C.
Experimental: The formulations of the present active compounds (6), (7), (18), (21), (24), (25), (28) to (30), (32), (46), (52), (101) to (103), (105) to (107), (111), (112), (115), (119) to (124), (126) to (130), (133) to (135), (139), (142), (144) to (146), (149) to (151), (153), (154), (216) and (217) obtained by Formulation Example 5 were diluted with water so that the active ingredient concentration was 500 ppm, to prepare spray solutions for test. Separately, on a rice seedling (2 weeks after sowing, second leaf spreading stage) planted on a plastic cup, the drug solutions for test prepared as described above were sprayed each in an amount of 10 ml. After drying of the drug solution sprayed on rice, 20 first instar larvae of Nilaparvata lugens were released, and kept in a greenhouse of 25° C. for 6 days. Thereafter, the number of Nilaparvata lugens […] on rice was checked, and the control value was calculated according to the following formula. Control value (%)={1-(Cb×Tai)/(Cai×Tb)}×100 Letters in the formula represent the following meanings. Cb: the number of insect before treatment on non-treated district Cai: the number of insect in observation on non-treated district Tb: the number of insect before treatment on treated district Tai: the number of insect in observation on treated district

Nilaparvata lugens [3] = test: Test Example 9: foot drench of rice seedling, twenty first instar larvae of Nilaparvata lugens; conditions: soil, 144 h, 5 ml drench at foot of rice seedling, kept 7 days, twenty first instar larvae released, further 6 days
Experimental: The formulations of the present active compounds (6), (7), (18), (22), (25), (30), (33), (46), (47), (53), (101) to (103), (106), (121) to (124), (126) to (128), (135), (139), (216) and (217) obtained by Formulation Example 5 were diluted with water so that the active ingredient concentration was 500 ppm, to prepare diluted solutions for test. Separately, a rice seedling (2 weeks after sowing, second leaf spreading stage) planted on a plastic cup was drenched at its foot with each 5 ml of the diluted solutions, and kept in a greenhouse of 25° C. for 7 days. Twenty first instar larvae of Nilaparvata lugens were released, and further kept in the greenhouse for 6 days, then, the number of insect of living Nilaparvata lugens […] on rice was checked, and the control value was calculated according to the following formula. Control value (%)={1-(Cb×Tai)/(Cai×Tb)}×100 Letters in the formula represent the following meanings. Cb: the number of insect before treatment on non-treated district Cai: the number of insect in observation on non-treated district Tb: the number of insect before treatment on treated district Tai: the number of insect in observation on treated district

Aphis gossypii [4] = test: Test Example 3: root immersion of cucumber seedling, Aphis gossypii; conditions: 168 h, cucumber root part immersed in 5 ml, inoculated one day after treatment, checked seven days after
Experimental: The formulations of the present active compounds (18), (19), (21), (22), (24), (25), (28), (31) to (34), (46), (47), (52), (53), (101) to (104), (106) to (108), (112) to (114), (117), (118), (122), (123), (126), (128), (129), (133), (134), (138), (144), (153) to (155) and (157) obtained by Formulation Example 5 were diluted with water so that the active ingredient concentration was 500 ppm, to prepare diluted solutions for test. A root part of a cucumber seedling (first true leaf spreading stage) from which soil had been washed off was immersed in 5 ml of this diluted solution, and one day after treatment, the cucumber leaf surface was inoculated with 30 Aphis gossypii (whole stage). Further seven days after, the number of insect of living Aphis gossypii […] on the leaves of this cucumber was checked, and the control value was calculated according to the following formula. Control value (%)={1-(Cb×Tai)/(Cai×Tb)}×100 Letters in the formula represent the following meanings. Cb: the number of insect before treatment on non-treated district Cai: the number of insect in observation on non-treated district Tb: the number of insect before treatment on treated district Tai: the number of insect in observation on treated district

Aphis gossypii [5] = test: Test Example 4: foot drench of cucumber seedling in plastic cup, inoculation after 7 days, Aphis gossypii; conditions: soil, 144 h, 5 ml drench at foot of cucumber seedling in plastic cup, kept 7 days at 25° C., inoculated, further 6 days
Experimental: The formulations of the present active compounds (3) to (7), (17), (19), (20), (22), (29) to (31), (35) to (37), (39), (41) to (45), (47) to (56), (101), (106), (121) to (123), (128), (131), (137), (139), (143), (145), (147), (211) to (213), (216) and (217) obtained by Formulation Example 5 were diluted with water so that the active ingredient concentration was 500 ppm, to prepare diluted solutions for test. Separately, a cucumber seedling (second true leaf spreading stage) planted on a plastic cup was drenched at its foot with each 5 ml of the diluted solutions, and kept in a greenhouse of 25° C. for 7 days. The cucumber leaf surface was inoculated with 30 Aphis gossypii (whole stage), and further kept in the greenhouse for 6 days, then, the number of insect of living Aphis gossypii […] on the leaves of this cucumber was checked, and the control value was calculated according to the following formula. Control value (%)={1-(Cb×Tai)/(Cai×Tb)}×100 Letters in the formula represent the following meanings. Cb: the number of insect before treatment on non-treated district Cai: the number of insect in observation on non-treated district Tb: the number of insect before treatment on treated district Tai: the number of insect in observation on treated district

Row | SMILES | pest or weed control at 500 ppm (Aphis gossypii [1]) [%] | pest or weed control at 500 ppm (Nilaparvata lugens [2]) [%] | pest or weed control at 500 ppm (Nilaparvata lugens [3]) [%] | pest or weed control at 500 ppm (Aphis gossypii [4]) [%] | pest or weed control at 500 ppm (Aphis gossypii [5]) [%]
1 | Cn1c(-c2ccncc2F)nc2cc(C(F)(F)F)ccc21 [present active compound 4, 2-(3-fluoropyridin-4-yl)-1-methyl-5-trifluoromethyl-1H-benzimidazole] | ≥ 90 | – | – | – | –
2 | Cn1c(-c2ccncc2Cl)nc2cc(C(F)(F)F)ccc21 [present active compound 5, 2-(3-chloropyridin-4-yl)-1-methyl-5-trifluoromethyl-1H-benzimidazole] | ≥ 90 | – | – | – | –
3 | Cc1cnccc1-c1nc2cc(C(F)(F)F)ccc2n1C [present active compound 6, 1-methyl-2-(3-methylpyridin-4-yl)-5-trifluoromethyl-1H-benzimidazole] | – | ≥ 90 | ≥ 90 | – | –
4 | CCc1cnccc1-c1nc2cc(C(F)(F)F)ccc2n1C [present active compound 7, 2-(3-ethylpyridin-4-yl)-1-methyl-5-trifluoromethyl-1H-benzimidazole] | – | ≥ 90 | ≥ 90 | – | –
5 | COc1cnccc1-c1nc2cc(C(F)(F)F)ccc2n1C [present active compound 8, 2-(3-methoxypyridin-4-yl)-1-methyl-5-trifluoromethyl-1H-benzimidazole] | ≥ 90 | – | – | – | –
6 | CCOc1cnccc1-c1nc2cc(C(F)(F)F)ccc2n1C [present active compound 9, 2-(3-ethoxypyridin-4-yl)-1-methyl-5-trifluoromethyl-1H-benzimidazole] | ≥ 90 | – | – | – | –
7 | Cn1c(-c2ccncc2OC(C)(C)C)nc2cc(C(F)(F)F)ccc21 [present active compound 12, 2-(3-tert-butoxypyridin-4-yl)-1-methyl-5-trifluoromethyl-1H-benzimidazole] | ≥ 90 | – | – | – | –
8 | Cn1c(-c2ccncc2OCC(F)F)nc2cc(C(F)(F)F)ccc21 [present active compound 14, 2-[3-(2,2-difluoroethoxy)-pyridin-4-yl]-1-methyl-5-trifluoromethyl-1H-benzimidazole] | ≥ 90 | – | – | – | –
9 | Cn1c(-c2ccncc2OCCF)nc2cc(C(F)(F)F)ccc21 [present active compound 15, 2-[3-(2-fluoroethoxy)-pyridin-4-yl]-1-methyl-5-trifluoromethyl-1H-benzimidazole] | ≥ 90 | – | – | – | –
10 | Cn1c(-c2ccncc2[S+](C)[O-])nc2cc(C(F)(F)F)ccc21 (stereo not drawn) [present active compound 18, 2-(3-methanesulfinylpyridin-4-yl)-1-methyl-5-trifluoromethyl-1H-benzimidazole] | – | ≥ 90 | ≥ 90 | ≥ 90 | –
11 | CCSc1cnccc1-c1nc2cc(C(F)(F)F)ccc2n1C [present active compound 20, 2-(3-ethylthiopyridin-4-yl)-1-methyl-5-trifluoromethyl-1H-benzimidazole] | ≥ 90 | – | – | – | ≥ 90
12 | CCS(=O)(=O)c1cnccc1-c1nc2cc(C(F)(F)F)ccc2n1C [present active compound 22, 2-(3-ethanesulfonylpyridin-4-yl)-1-methyl-5-trifluoromethyl-1H-benzimidazole] | – | – | ≥ 90 | ≥ 90 | ≥ 90
13 | COCCOc1cnccc1-c1nc2cc(C(F)(F)F)cnc2n1C [present active compound 46, 2-[3-(2-methoxyethoxy)-pyridin-4-yl]-3-methyl-6-trifluoromethyl-3H-imidazo[4,5-b]pyridine] | – | ≥ 90 | ≥ 90 | ≥ 90 | –
14 | CCS(=O)(=O)c1cnccc1-c1nc2cc(C(F)(F)F)cnc2n1C [present active compound 53, 2-(3-ethanesulfonylpyridin-4-yl)-3-methyl-6-trifluoromethyl-3H-imidazo[4,5-b]pyridine] | – | – | ≥ 90 | ≥ 90 | –
15 | CN(C)C(=O)c1cnccc1-c1nc2cc(C(F)(F)F)cnc2n1C [present active compound 139] | – | ≥ 90 | ≥ 90 | – | ≥ 90
16 | Cc1cnccc1-c1nc2cc(C(F)(F)F)cnc2n1C [present active compound 216, 3-methyl-2-(3-methylpyridin-4-yl-)-6-trifluoromethyl-3H-imidazo[4,5-b]pyridine] | – | ≥ 90 | ≥ 90 | – | ≥ 90
17 | CCc1cnccc1-c1nc2cc(C(F)(F)F)cnc2n1C [present active compound 217, 2-(3-ethylpyridin-4-yl-)-3-methyl-6-trifluoromethyl-3H-imidazo[4,5-b]pyridine] | – | ≥ 90 | ≥ 90 | – | ≥ 90

Source: patent US8461181B2, “Fused heterocyclic compound and use thereof” (Sumitomo Chemical Company, Ltd., priority 2009, dated 2013)
